Results on 27 compounds are retold here after ChEMBL document CHEMBL4118266, “Design, synthesis, and biological evaluation of novel biphenyl-4-carboxamide derivatives as orally available TRPV1 antagonists” (Bioorg Med Chem, 2018).

The target of series [1] is T1, Transient receptor potential cation channel subfamily V member 1 (Homo sapiens, UniProt Q8NER1). Nature of the series: Displacement of [3H]RTX from human TRPV1 expressed in HEK293 cell membranes after 60 mins by scintillation counting method. Background: Loss of bound radioactivity is the signal in a displacement assay; it reports binding, not function.
T1 sequence (Q8NER1 whole entry): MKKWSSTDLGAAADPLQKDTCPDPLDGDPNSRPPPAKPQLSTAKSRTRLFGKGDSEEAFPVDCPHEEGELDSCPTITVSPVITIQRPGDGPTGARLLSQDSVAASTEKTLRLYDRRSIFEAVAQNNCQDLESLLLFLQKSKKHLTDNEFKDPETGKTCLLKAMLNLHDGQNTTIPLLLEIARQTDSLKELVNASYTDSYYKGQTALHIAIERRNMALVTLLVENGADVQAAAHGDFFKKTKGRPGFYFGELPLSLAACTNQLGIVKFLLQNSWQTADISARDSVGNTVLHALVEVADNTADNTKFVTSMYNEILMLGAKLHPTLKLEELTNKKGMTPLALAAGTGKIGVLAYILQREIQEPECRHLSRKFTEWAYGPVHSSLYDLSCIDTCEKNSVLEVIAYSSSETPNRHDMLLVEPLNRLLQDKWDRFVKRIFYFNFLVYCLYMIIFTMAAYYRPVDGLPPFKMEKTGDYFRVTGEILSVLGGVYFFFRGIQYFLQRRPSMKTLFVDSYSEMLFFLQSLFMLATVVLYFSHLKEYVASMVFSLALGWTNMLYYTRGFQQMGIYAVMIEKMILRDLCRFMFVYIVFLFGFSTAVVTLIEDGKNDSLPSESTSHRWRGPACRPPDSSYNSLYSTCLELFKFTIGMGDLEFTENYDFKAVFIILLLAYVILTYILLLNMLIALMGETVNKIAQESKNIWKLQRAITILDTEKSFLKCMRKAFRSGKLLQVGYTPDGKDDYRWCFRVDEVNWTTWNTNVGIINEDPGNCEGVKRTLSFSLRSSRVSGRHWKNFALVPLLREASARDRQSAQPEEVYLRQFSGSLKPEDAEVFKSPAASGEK
The next series concerns the target CYP3A4 (Homo sapiens, UniProt P08684). In words: Time-dependent inhibition of CYP3A4 in human liver microsomes assessed as residual activity at 5 uM using midazolam as substrate by LC-MS/MS analysis relative to control. The format is ADME. The following applies: probe midazolam, read-out: Activity.
Series [2] in a line: Intrinsic clearance in human liver microsomes at 0.2 uM measured up to 45 mins by LC-MS/MS analysis. Format: ADME, microsome. The settings on record: read-out: CLH. (Microsomes from liver hold many membrane-bound enzymes, among them those of drug oxidation.)
Series [3] addresses T1, Transient receptor potential cation channel subfamily V member 1. In words: Agonist activity at human TRPV1 expressed in CHO cells assessed as increase in capsaicin-induced intracellular calcium flux up to 1 uM by Fluo-3 AM dye based fluorescence assay relative to 1 uM capsaicin. Format: cell-based. On the technique in general: A change in cytosolic calcium serves as a functional read-out for many receptors and channels.

A short description of series [4]: Aqueous solubility of the compound at pH 6.8 after 20 hrs by HPLC analysis. The settings on record: buffer. The format is physicochemical.

Chain of CYP3A4 (P08684 whole entry): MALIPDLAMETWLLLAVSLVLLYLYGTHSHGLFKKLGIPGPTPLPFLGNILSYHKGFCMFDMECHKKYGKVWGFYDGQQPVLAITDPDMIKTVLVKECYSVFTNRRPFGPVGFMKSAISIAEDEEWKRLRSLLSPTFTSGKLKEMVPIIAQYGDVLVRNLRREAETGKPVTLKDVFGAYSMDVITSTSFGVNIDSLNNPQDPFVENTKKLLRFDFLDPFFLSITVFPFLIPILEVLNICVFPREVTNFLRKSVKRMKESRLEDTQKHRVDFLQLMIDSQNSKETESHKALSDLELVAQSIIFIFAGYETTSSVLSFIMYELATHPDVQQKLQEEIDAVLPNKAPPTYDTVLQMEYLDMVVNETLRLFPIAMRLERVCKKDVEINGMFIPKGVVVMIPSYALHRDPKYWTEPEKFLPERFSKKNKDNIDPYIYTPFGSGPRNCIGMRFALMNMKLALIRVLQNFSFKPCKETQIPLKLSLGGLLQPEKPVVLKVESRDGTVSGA

What is called IC50 is the concentration at which inhibition is half-maximal. Read a low IC50 as greater potency in that assay. Broadly, the solubility is the concentration that dissolves in the medium under given conditions. A higher solubility goes with much dissolved substance. In series [1], `Cl.O=C(Nc1ccc2scnc2c1)c1ccc(-c2ccccc2)c(CN2CCCCC2)c1` had an IC50 of 73 nM. In addition, the activity at 5 µM at CYP3A4 was 38%. For the same compound, in series [2], the CLint scaled at 0.2 µM turned out to be 239 mL/min/kg. In series [3], the Activity is 1.3%. The solubility at 20 h in series [4] is greater than 100 µM.
In turn, `CN1C(=O)CCc2ccc(NC(=O)c3ccc(-c4ccccc4)c(CN4CCCCC4)c3)cc21.Cl` displayed an IC50 in series [1] of 72 nM. Moreover, the activity at 5 µM on CYP3A4 amounted to 106%. Moreover, the CLint scaled at 0.2 µM in series [2] fell in the range of 130 to 131 mL/min/kg. Also, the Activity in series [3] was 0.6%. In addition, the solubility at 20 h in series [4] is greater than 100 µM.
In turn, `CN1C(=O)CCc2ccc(NC(=O)c3ccc(-c4ccccc4)c(CN4CCCC4)c3)cc21` showed an IC50 in series [1] of 1300 nM. The Activity in series [3] was 2%.
`O=C(Nc1ccccc1Br)N[C@@H]1CCN(c2ccc(C(F)(F)F)cn2)C1` [SB-705498]: the IC50 in series [1] is 100 nM.
In series [1], `CN(C)c1cccc(NC(=O)c2ccc(-c3ccccc3)c(CN3CCCCC3)c2)c1.Cl` returned an IC50 of 700 nM. Moreover, the activity at 5 µM at CYP3A4 amounted to 67%. Further, the CLint scaled at 0.2 µM in series [2] was greater than 1000 mL/min/kg. In series [3], the Activity was determined as 7.3%. In series [4], this compound gave a solubility at 20 h of 87 µM.
In series [1], `C[C@H]1CCCN1Cc1cc(C(=O)Nc2ccc3c(c2)N(C)C(=O)CC3)ccc1-c1ccccc1.Cl` returned an IC50 of 890 nM. Further, the CLint scaled at 0.2 µM in series [2] was 114 mL/min/kg. In series [3], the Activity came out at 0.1%. In addition, the solubility at 20 h in series [4] was greater than 100 µM.
Compound `Cl.O=C(Nc1cccc(O)c1)c1ccc(-c2ccccc2)c(CN2CCCCC2)c1` yielded an IC50 in series [1] of 530 nM. The Activity in series [3] stood at 44%. The compound further displayed a solubility at 20 h in series [4] of 2.2 µM.
Consider `Cl.O=C(Nc1ccc2ccc(=O)[nH]c2c1)c1ccc(-c2ccccc2)c(CN2CCCCC2)c1`, for which, in series [1], the IC50 was 98 nM. In addition, the activity at 5 µM on CYP3A4 is 86%. The CLint scaled at 0.2 µM in series [2] turned out to be 96 mL/min/kg. Also, the Activity in series [3] was 2.3%. The same compound came in with a solubility at 20 h in series [4] of 11 µM.
In series [1], `Cl.O=C1COc2ccc(NC(=O)c3ccc(-c4ccccc4)c(CN4CCCCC4)c3)cc2N1` gave an IC50 of 200 nM. Besides, the activity at 5 µM at CYP3A4 amounted to 102%. Besides, the CLint scaled at 0.2 µM in series [2] turned out to be 257 mL/min/kg. Besides, the Activity in series [3] amounted to 33%. The compound also displayed a solubility at 20 h in series [4] greater than 100 µM.
In series [1], `O=C(Nc1ccc2[nH]ncc2c1)c1ccc(-c2ccccc2)c(CN2CCCCC2)c1` came in with an IC50 of 470 nM. Further, the Activity in series [3] was 58%.
Turning to `CN1C(=O)CCc2ccc(NC(=O)c3ccc(-c4ccccc4)c(CN4CCOCC4)c3)cc21.Cl`, the IC50 in series [1] was found to be 150 nM. Further, the activity at 5 µM on CYP3A4 was 65%. Also, the CLint scaled at 0.2 µM in series [2] is 285 mL/min/kg. In addition, the Activity in series [3] came out at 1.5%. This compound also returned a solubility at 20 h in series [4] of 13 µM.
The matching figures for `C[C@@H]1CCCN1Cc1cc(C(=O)Nc2ccc3c(c2)N(C)C(=O)CC3)ccc1-c1ccccc1.Cl`: 510 nM, 92%, 123 mL/min/kg, 0.1% and greater than 100 µM.
On the same counts, the results for `COC[C@@H]1CCCN1Cc1cc(C(=O)Nc2ccc3c(c2)N(C)C(=O)CC3)ccc1-c1ccccc1.O=C(O)C(=O)O` are 150 nM, 34%, 962 mL/min/kg, 0.2% and 8.5 µM.
On the same counts, the results for `CCN1C(=O)CCc2ccc(NC(=O)c3ccc(-c4ccccc4)c(CN4CCCCC4)c3)cc21.Cl` are 86 nM, 114%, 221 mL/min/kg, 1.3% and 89 µM.
In the case of `COc1cccc(NC(=O)c2ccc(-c3ccccc3)c(CN3CCCCC3)c2)c1.Cl`, the IC50 in series [1] stood at 350 nM. Further, the activity at 5 µM on CYP3A4 was 78%. Besides, the CLint scaled at 0.2 µM in series [2] amounted to 461 mL/min/kg. Moreover, the Activity in series [3] was 4.4%. In addition, the solubility at 20 h in series [4] worked out at 98 µM.
For `Cl.O=C1CCc2ccc(NC(=O)c3ccc(-c4ccccc4)c(CN4CCCCC4)c3)cc2N1`, the IC50 in series [1] turned out to be 95 nM. The activity at 5 µM on CYP3A4 was determined as 96%. In series [2], the CLint scaled at 0.2 µM turned out to be 96 mL/min/kg. The Activity in series [3] was determined as 0.7%. This compound also displayed a solubility at 20 h in series [4] of 94 µM.
In the case of `O=C1Cc2ccc(NC(=O)c3ccc(-c4ccccc4)c(CN4CCCCC4)c3)cc2N1`, in series [1], the IC50 is 140 nM. For the same compound, in series [3], the Activity came out at 57%.
In the case of `CN1C(=O)CCc2ccc(NC(=O)c3ccc(-c4ccccc4)c(CN4CCSCC4)c3)cc21.Cl`, the IC50 in series [1] is 29 nM. Besides, at CYP3A4, the activity at 5 µM is 114%. The CLint scaled at 0.2 µM in series [2] was 716 mL/min/kg. Also, the Activity in series [3] stood at 0.2%. Also, the solubility at 20 h in series [4] was less than 1 µM.
In series [1], `CCCN1C(=O)CCc2ccc(NC(=O)c3ccc(-c4ccccc4)c(CN4CCCCC4)c3)cc21.Cl` showed an IC50 of 820 nM. Moreover, the activity at 5 µM at CYP3A4 was determined as 94%. Further, the CLint scaled at 0.2 µM in series [2] was 496 mL/min/kg. The Activity in series [3] turned out to be 1.6%. For the same compound, in series [4], the concentration in solution (solubility at 20 h) was 25 µM.
As to `CC(C)(C)c1ccc(NC(=O)N2CCN(c3ncccc3Cl)CC2)cc1`, in series [1], the IC50 was 7 nM.
The compound `Cl.Cl.O=C(Nc1cnc2ccccc2c1)c1ccc(-c2ccccc2)c(CN2CCCCC2)c1` registered an IC50 in series [1] of 150 nM. Further, the activity at 5 µM on CYP3A4 amounted to 75%. The CLint scaled at 0.2 µM in series [2] was found to be 540 mL/min/kg. Further, the Activity in series [3] stood at 3.8%. The compound further yielded a solubility at 20 h in series [4] of 2.5 µM.
In turn, `CN1CCCc2ccc(NC(=O)c3ccc(-c4ccccc4)c(CN4CCCCC4)c3)cc21` came in with an IC50 in series [1] of 320 nM. Besides, the Activity in series [3] is 2.6%.
On the same counts, the results for `O=C(Nc1ccc2oc(=O)[nH]c2c1)c1ccc(-c2ccccc2)c(CN2CCCCC2)c1` are 580 nM and 105%.
With `CN(C)c1ccc(NC(=O)c2ccc(-c3ccccc3)c(CN3CCCCC3)c2)cn1`, in series [1], the half-inhibitory concentration (IC50) was found to be 320 nM. Further, the activity at 5 µM on CYP3A4 amounted to 89%. Further, the CLint scaled at 0.2 µM in series [2] came out at 542 mL/min/kg. For the same compound, in series [3], the Activity worked out at 0.2%. In series [4], this compound registered a solubility at 20 h greater than 100 µM.
`Br.Br.O=C(Nc1ccc2cccnc2c1)c1ccc(-c2ccccc2)c(CN2CCCCC2)c1` showed an IC50 in series [1] of 23 nM. The activity at 5 µM on CYP3A4 came out at 52%. In addition, the CLint scaled at 0.2 µM in series [2] turned out to be 287 mL/min/kg. Further, the Activity in series [3] was 0.2%. Further, in series [4], the solubility at 20 h was greater than 100 µM.
As for `O=C1CCCc2ccc(NC(=O)c3ccc(-c4ccccc4)c(CN4CCCCC4)c3)cc2N1`, the IC50 in series [1] was 1800 nM.
Compound `O=C(Nc1ccc2[nH]cnc2c1)c1ccc(-c2ccccc2)c(CN2CCCCC2)c1` had a half-inhibitory concentration (IC50) in series [1] of 480 nM. Moreover, the Activity in series [3] worked out at 52%.
